Laboratory results taken from patent US7470684B2, “Spiropiperidine derivatives as NK3 antagonists” (Hoffmann-La Roche Inc., priority 2007, dated 2008).

molecular target: T1, human NK3 receptor (Homo sapiens, UniProt P29371); experiment: [3H]SR142801 competition binding assay; settings: not given
T1 construct: expressed in transfected cells; host or cells: HEK293 cells, transiently transfected; membranes
T1 sequence (P29371 1-465): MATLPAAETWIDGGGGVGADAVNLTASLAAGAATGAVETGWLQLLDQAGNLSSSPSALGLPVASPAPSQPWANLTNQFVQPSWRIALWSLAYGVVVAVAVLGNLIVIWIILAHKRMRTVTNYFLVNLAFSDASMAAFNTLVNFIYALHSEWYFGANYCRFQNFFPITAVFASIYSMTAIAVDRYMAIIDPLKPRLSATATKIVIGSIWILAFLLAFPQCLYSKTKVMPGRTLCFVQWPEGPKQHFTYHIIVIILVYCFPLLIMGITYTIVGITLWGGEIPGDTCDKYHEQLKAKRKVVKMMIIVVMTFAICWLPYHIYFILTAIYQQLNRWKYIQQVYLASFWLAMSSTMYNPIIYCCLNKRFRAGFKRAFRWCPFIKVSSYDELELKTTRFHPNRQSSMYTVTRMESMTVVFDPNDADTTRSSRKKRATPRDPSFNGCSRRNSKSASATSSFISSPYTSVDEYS
Description: [^3H]SR142801 Competition Binding Assay
hNK3 receptor binding experiment were performed using [^3H]SR142801 (Catalog No. TRK1035, specific activity: 74.0 Ci/mmol, Amersham, GE Healthcare UK limited, Buckinghamshire, UK) and membrane isolated from HEK293 cells transiently expressing recombinant human NK3 receptor. After thawing, the membrane homogenates were centrifuged at 48,000×g for 10 min at 4° C., the pellets were resuspended in the 50 mM Tris-HCl, 4 mM MnCl2, 1 μM phosphoramidon, 0.1% BSA binding buffer at pH 7.4 to a final assay concentration of 5 μg protein/well. For inhibition experiments, membranes were incubated with [^3H]SR142801 at a concentration equal to KD value of radioligand and 10 concentrations of the inhibitory compound (0.0003-10 μM) (in a total reaction volume of 500 μl) for 75 min at room temperature (RT). At the end of the incubation, membranes were filtered onto unitfilter (96-well white microplate with bonded GF/C filter preincubated 1 h in 0.3% PEI+0.3% BSA, Packard BioScience, Meriden, Conn.) with a Filtermate 196 harvester (Packard BioScience) and washed 4 times with ice-cold 50 mM Tris-HCl, pH 7.4 buffer. Nonspecific binding was measured in the presence of 10 μM SB222200 for both radioligands. The radioactivity on the filter was counted (5 min) on a Packard Top-count microplate scintillation counter with quenching correction after addition of 45 μl of microscint 40 (Canberra Packard S.A., Zürich, Switzerland) and shaking for 1 h. Inhibition curves were fitted according to the Hill equation: y=100/(1+(x/IC50)^nH), where nH=slope factor using Excel-fit 4 software (Microsoft). IC50 values were derived from the inhibition curve and the affinity constant (Ki) values were calculated using the Cheng-Prussoff equation Ki=IC50/(1+[L]/KD) where [L] is the concentration of radioligand and KD is its dissociation constant at the receptor, derived from the saturation isotherm. All experiments were performed in duplicate and the mean±standard error (SEM) of the individual Ki values was calculated.

Compound	Ki [nM]
CN1C(=O)OC2(CCN(CCC(C(=O)N3CCC(F)CC3)c3ccc(Cl)c(Cl)c3)CC2)c2cc(F)ccc21 (centres unmarked) [Example 43, 1′-[3-(3,4-dichlorophenyl)-4-(4-fluropiperidin-1-yl)-4-oxobutyl]-6-fluoro-1-methylspiro[3,1-benzoxazine-4,4′-piperidin]-2(1H)-one]	61.9
O=C1Nc2ccc(F)cc2C2(CCN(CCC(C(=O)NCc3cccc(C(F)(F)F)c3)c3ccc(F)cc3)CC2)O1 (centres unmarked) [Example 61, 4-(6-fluoro-2-oxo-1,2-dihydro-1′H-spiro[3,1-benzoxazine-4,4′-piperidin]-1′-yl)-2-(4-fluorophenyl)-N-[3-(trifluoromethyl)benzyl]butanamide]	88.5

same assay, conditions: [3H]SR142801 displacement, membranes of HEK293 cells transiently expressing recombinant human NK3 receptor; read-out: hNK3 Ki

Compound	Ki [nM]
O=C1Nc2ccc(F)cc2C2(CCN(CCC(C(=O)NCc3ccc(Cl)cc3Cl)c3ccc(Cl)c(Cl)c3)CC2)O1 (centres unmarked) [Example 62, N-(2,4-dichlorobenzyl)-2-(3,4-dichlorophenyl)-4-(6-fluoro-2-oxo-1,2-dihydro-1′H-spiro[3,1-benzoxazine-4,4′-piperidin]-1′-yl)butanamide]	10

same assay, conditions: hNK3 Ki, [3H]SR142801 displacement, membranes of HEK293 cells transiently expressing recombinant human NK3 receptor

Compound	Ki [nM]
CN(Cc1ccccc1Cl)C(=O)C(CCN1CCC2(CC1)OC(=O)N(C)c1ccc(F)cc12)c1ccc(Cl)c(Cl)c1 (centres unmarked) [Example 44, N-(2-chlorobenzyl)-2-(3,4-dichlorophenyl)-4-(6-fluoro-1-methyl-2-oxo-1,2-dihydro-1′H-spiro[3,1-benzoxazine-4,4′-piperidin]-1′-yl)-N-methylbutanamide]	1.6
O=C1Nc2ccc(F)cc2C2(CCN(CCC(C(=O)NCc3ccc(Cl)cc3Cl)c3ccc(F)cc3)CC2)O1 (centres unmarked) [Example 47, N-(2,4-dichlorobenzyl)-4-(6-fluoro-2-oxo-1,2-dihydro-1′H-spiro[3,1-benzoxazine-4,4′-piperidin]-1′-yl)-2-(4-fluorophenyl)butanamide]	82.7
O=C1Nc2ccc(F)cc2C2(CCN(CCC(C(=O)NCc3ccccc3OC(F)(F)F)c3ccc(F)cc3)CC2)O1 (centres unmarked) [Example 49, 4-(6-fluoro-2-oxo-1,2-dihydro-1′H-spiro[3,1-benzoxazine-4,4′-piperidin]-1′-yl)-2-(4-fluorophenyl)-N-[2-(trifluoromethoxy)benzyl]butanamide]	90.9
CN(Cc1ccc(C(F)(F)F)cc1)C(=O)C(CCN1CCC2(CC1)OC(=O)Nc1ccc(F)cc12)c1ccc(F)cc1 (centres unmarked) [Example 51, 4-(6-fluoro-2-oxo-1,2-dihydro-1′H-spiro[3,1-benzoxazine-4,4′-piperidin]-1′-yl)-2-(4-fluorophenyl)-N-methyl-N-[4-(trifluoromethyl)benzyl]butanamide]	32.2
Cc1ccc(CN(C)C(=O)C(CCN2CCC3(CC2)OC(=O)Nc2ccc(F)cc23)c2ccc(F)cc2)cc1 (centres unmarked) [Example 56, 4-(6-fluoro-2-oxo-1,2-dihydro-1′H-spiro[3,1-benzoxazine-4,4′-piperidin]-1′-yl)-2-(4-fluorophenyl)-N-methyl-N-(4-methylbenzyl)butanamide]	66.4
CN(Cc1cccc(C(F)(F)F)c1)C(=O)C(CCN1CCC2(CC1)OC(=O)Nc1ccc(F)cc12)c1ccc(F)cc1 (centres unmarked) [Example 58, 4-(6-fluoro-2-oxo-1,2-dihydro-1′H-spiro[3,1-benzoxazine-4,4′-piperidin]-1′-yl)-2-(4-fluorophenyl)-N-methyl-N-[3-(trifluoromethyl)benzyl]butanamide]	94.9
CN(Cc1ccc(F)cc1)C(=O)C(CCN1CCC2(CC1)OC(=O)Nc1ccc(F)cc12)c1ccc(F)cc1 (centres unmarked) [Example 59, N-(4-fluorobenzyl)-4-(6-fluoro-2-oxo-1,2-dihydro-1′H-spiro[3,1-benzoxazine-4,4′-piperidin]-1′-yl)-2-(4-fluorophenyl)-N-methylbutanamide]	48.9
CN(Cc1ccccc1)C(=O)C(CCN1CCC2(CC1)OC(=O)Nc1ccc(F)cc12)c1ccc(Cl)c(Cl)c1 (centres unmarked) [Example 64, N-benzyl-2-(3,4-dichlorophenyl)-4-(6-fluoro-2-oxo-1,2-dihydro-1′H-spiro[3,1-benzoxazine-4,4′-piperidin]-1′-yl)-N-methylbutanamide]	12.5
